Measurements from patent publication US10047386B2, “Biomarker for abdominal aortic aneurysm” (THE REGENTS OF THE UNIVERSITY OF CALIFORNIA, priority 2011, dated 2018).
Where “and” joins values, the source holds several entries; their conditions need not be identical. Equal values may be shown once. Entries after “also recorded” stand apart in the source; their conditions may differ.

How the values were obtained:
Format in all cases: in vivo
[1] = tested on: hph-1 mice; experiment: AAA formation in Ang II-infused hph-1 mice; conditions: for AAA total morbidity / incidence rate: Ang II 0.7 mg/kg per day for 14 days, FA 15 mg/kg per day oral where given
Description: (§1) The hph-1 mice (originally in CBA background)^19 were backcrossed with C57BL6 mice for >10 generations and genotyped based on a protocol by Khoo et al.^21 Only homozygote hph-1 mice in C57BL6 background were used for experiments. WT and hph-1 male mice at 24 weeks of age were infused with Ang II (0.7 mg/kg per day) using subcutaneously implanted osmotic pumps (Durect Corp). During the 14-day infusion, blood pressure was monitored by telemetry method. Wireless blood pressure probes were implanted into the animals 10 days before the implantation of the osmotic pumps. The catheter of the blood pressure probe was inserted into the left carotid artery, whereas the body of the probe was inserted into the right flank.
(§2) WT and hph-1 mice were started on continuous oral administration of FA (15 mg/kg per day) or tail vein transfection of DHFR expression vector (pcDNA3.1-DHFR)5 in lipid-based reagent from Altogen Biosystems every other day for 14 days, starting 2 days before Ang II infusion. The mice were monitored twice per day during the infusion period of 2 weeks, and aortas were harvested for assessment of AAA formation, endothelial DHFR expression, and eNOS uncoupling activity by day 14. Animals that died suddenly during the infusion period of 14 days were inspected for aneurysm immediately and aortas were freshly harvested for experiments.

[2] = tested on: apoE null mice; experiment: AAA formation in Ang II-infused apoE null mice; conditions: for number of mice with AAA / number of mice with No AAA: Ang II 4 weeks, FA 15 mg/kg/day where given
Description: Animals were fed normal chow or customized FA chew (15 mg/kg/day) two days prior to Ang II infusion and throughout the study period of 4 weeks. Of note, 24 out of 26 Ang II infused apoE null mice (92.3%) on normal chow developed AAA (FIG. 11). […] L-NAME sensitive superoxide production, which reflects eNOS uncoupling activity, was also measured.
For this study, apoE null male animals were infused with Ang II for 4 weeks, which has been shown in literature to reliably produce AAA in 90-100% of the animals. One group of animals is fed food mixed with FA. AAA development is monitored using a noninvasive ultrasound technique during the infusion period. At the end of the four weeks, aortas from the animals were harvested and histology or biochemical assays were performed to assess for various markers of AAA and eNOS functional state.
Animals were either given regular chow, or food pellets made in house mixed with FA (15 mg/kg/day). Aorta are carefully dissected and cleaned of connective tissue from the animals after euthanasia. Blood samples (˜0.1 mL) are collected from each animal on a weekly basis and after euthanasia.
The development of AAA is monitored noninvasively via an ultrasound imaging system (Vevo 770, Visualsonics) during the Ang II-infusion period. The abdominal aortas were imaged transversely and identified via Doppler measurements for the presence of a major pulsatile flow. […] Aorta size is later measured offline from images captured. Two measurements per week after Ang II infusion, as well as two measurements before the Ang II infusion (for control) are made. AAA is defined as an enlargement of the abdominal aorta by at least 50%, and later confirmed at the experimental end point. The AAA incidence for this model was also assessed by direct inspection of abdominal aorta at time of harvest, or post-mortem in those died of sudden rupture.

[3] = tested on: WT mice; experiment: Mean blood pressure by intracarotid telemetry, WT mice
Description: as §1
(§3) Animals were given 1 week to recover from the surgery. After this period, blood pressure was measured for 3 days to obtain a baseline. The osmotic pumps were then implanted on day 10 after surgery. Measurements were made daily from 9:00 AM to 4:00 PM at a 250-Hz sampling rate. Average blood pressure was calculated daily as the average of the entire recording period. The use of animals and experimental procedures were approved by the institutional animal care and usage committee at the University of California Los Angeles. […]

[4] = tested on: hph-1 mice; experiment: Mean blood pressure by intracarotid telemetry, hph-1 mice
Description: as §1, §3

[5] = tested on: aortic H4B; experiment: HPLC determination of aortic H4B content, hph-1 mice; conditions: for aortic levels of H4B: hph-1 mice, Example 3, n=3 each (vehicle 1.87±0.25)
Description: (§4) Animals were given 1 week to recover from the surgery. After this period, blood pressure was measured for 3 days to obtain a baseline. The osmotic pumps were then implanted on day 10 after surgery. Measurements were made daily from 9:00 AM to 4:00 PM at a 250-Hz sampling rate. Average blood pressure was calculated daily as the average of the entire recording period. The use of animals and experimental procedures were approved by the institutional animal care and usage committee at the University of California Los Angeles. Electron spin resonance determination of aortic NO and superoxide production, high-performance liquid chromatography determination of aortic H4B content, and Western blot determination of endothelial DHFR expression were performed as published previously.^1,2,5
(§5) H4B levels are measured using a HPLC system as previously described. Briefly, aorta samples are lysed with trichloroacetic acid and DTT, subjected to acidic or alkalytic oxidation, and H4B and its oxidized species are detected with a fluorescent detector after separation in the HPLC system (Shimadzu).

[6] = tested on: aortic H4B; experiment: HPLC determination of aortic H4B content, WT mice; conditions: Ang II-infused WT mice, FA 15 mg/kg per day
Description: as §4, §5

[7] = tested on: aortic H4B; experiment: HPLC determination of aortic H4B, apoE null mice; conditions: n=6 (vehicle 4.86±0.32)
Description: as §5
(§6) Also investigated was whether FA supplementation as used above leads to improved H4B availability both in the circulation and in the vascular tissues. Ang II-infused apoE null or hph-1 mice are treated with diets supplemented with FA, and circulating and aortic H4B contents are determined using HPLC at different time points of 1, 2, 3 and 4 wks. […] It is established that it takes 3-4 weeks for AAA to develop in Ang II-infused apoE null mice, and at these time points, circulating and tissues H4B levels were indeed decreased, but restored by FA treatment (FIGS. 9-10).

[8] = tested on: plasma H4B; experiment: HPLC determination of plasma H4B, apoE null mice; conditions: n=6 each (vehicle 3.31±0.13)
Description: as §5
(§7) Blood samples are collected from Ang II-infused apoE null and hph-1 animals. Approximately 0.1 mL of blood is collected from each animal from the tail vein on a weekly basis. HPLC is used to determine the concentration of H4B in the blood samples as outlined above.
as §6

[9] = tested on: plasma H4B; experiment: HPLC determination of plasma H4B, hph-1 mice; conditions: n=3 each (vehicle 1.37±0.05)
Description: as §5, §7, §6

[10] = tested on: hph-1 mice; experiment: Ultrasound detection of abdominal aorta size, hph-1 mice; conditions: Ang II infusion, day 0 values 0.37 (Ang II) and 0.39 (FA)
Source text: (§8) Animals were anesthetized with isoflurane and placed on a temperature-controlled table, which also measures ECG for heart rate. Isoflurane levels were adjusted throughout the experiment to maintain heart rate between 400 and 500 bpm while keeping the animal sufficiently anesthetized. Hair was removed from the abdomen using a hair removal cream, and preheated ultrasound transmission gel was applied onto the abdomen area. An ultrasound probe (Velvo 770, Visualsonics) was placed on the gel to visualize aorta transversely. The aorta was identified using Doppler measurement for the presence of pulsatile flow. […] Images were recorded and saved onto a PC computer for offline area analysis. Hematoxylin-eosin and Verhoeff-Van Gieson stainings were conducted following standard histological protocols.

[11] = tested on: endothelial DHFR; experiment: Western blot of endothelial DHFR expression in aortic preparations, hph-1 mice; conditions: Ang II infusion 14 days
Description: as §4
On harvest, whole aorta was cut open longitudinally and then digested with collagenase (0.6 mg/mL) at 37° C. for 20 minutes before gentle removal of endothelial cells with a cotton applicator. The supernatant containing endothelial cells was centrifuged and lysed for Western blot analysis.

[12] = tested on: hph-1 mice; experiment: Aortic histology (H&E, VVG, macrophage staining), hph-1 mice; conditions: for infiltrating macrophages: Ang II-infused mice
Source text: as §8
(§9) Formalin-fixed and paraffin-embedded tissue were sectioned at 5 μm. Paraffin was removed by washing with xylene and then rehydrated with descending concentrations of ethanol. Antigen retrieval was performed by immersing the sections in an antigen retrieval buffer ([…] of citric acid, 0.01% Tween 20) at 98.5° C. for 20 minutes. Sections were washed in PBS plus 0.1% triton (PBS-T) and then blocked with 2% normal goat serum in PBS-T at room temperature for 3 hours. Sections were then incubated with primary antibody (Mac-3, BD Pharmingen, 2%, in PBS-T) overnight at 4° C. After washing with PBS-T for 1 hour, sections were incubated with secondary antibody (Alexa fluor 488, 2% in PBS-T) for 2 hours at room temperature in the dark. After washing with PBS-T for 1 hour, sections were dehydrated with ascending grades of ethanol and then xylene. Sections were mounted with Permount medium and pictures taken with a confocal microscope (Leica, SP1 inverted). MMP activity assays were performed as published previously.^22

[13] = tested on: MMP2; experiment: MMP activity zymography of aortas, MMP2, hph-1 mice
Description: as §9
(§10) An increase in MMP activity is one of the hallmarks of AAA development. Therefore, MMP activity can be measured using a zymography technique described in detail in other studies. Briefly, aortic lysates are loaded to gelatin infused SDS-PAGE gels. After electrophoresis, gelatin in the gel is digested by MMP in the loaded samples by incubating the gel in 37° C. overnight. […]

[14] = tested on: MMP9; experiment: MMP activity zymography of aortas, MMP9, hph-1 mice
Description: as §9, §10

[15] = tested on: MMP2; experiment: MMP activity zymography of aortas, MMP2, WT mice
Description: as §9, §10

[16] = tested on: WT mice; experiment: AAA formation in Ang II-infused wild-type mice; conditions: Ang II 0.7 mg/kg per day, 14 days
Description: as §1, §2

[17] = tested on: WT mice; experiment: Ultrasound detection of abdominal aorta size, WT mice; conditions: Ang II infusion, day 0 value 0.53
Source text: as §8

[18] = tested on: eNOS; experiment: ESR aortic superoxide production with or without L-NAME (eNOS uncoupling), apoE null mice
Description: L-NAME sensitive superoxide production, which reflects eNOS uncoupling activity, was also measured.
The functional state of eNOS is assessed in lysed aortic samples by measuring superoxide production in the presence or absence of L-NAME using electron spin resonance (ESR, from Bruker). Under normal conditions where eNOS is coupled, the addition of the eNOS inhibitor L-NAME will increase superoxide production, as eNOS is normally producing NO to scavenge superoxide. However, under eNOS uncoupled conditions where eNOS is producing superoxide, the addition of L-NAME will decrease superoxide production. This direction of change in superoxide production will allow for an accurate assessment of eNOS function in the aortas of the animals.

[19] = tested on: eNOS; experiment: ESR aortic superoxide production with or without L-NAME (eNOS uncoupling), hph-1 mice; conditions: Ang II-infused hph-1 mice
Description: as §4
(§11) The mice were monitored twice per day during the infusion period of 2 weeks, and aortas were harvested for assessment of AAA formation, endothelial DHFR expression, and eNOS uncoupling activity by day 14. Animals that died suddenly during the infusion period of 14 days were inspected for aneurysm immediately and aortas were freshly harvested for experiments.

[20] = tested on: eNOS; experiment: ESR aortic superoxide production with or without L-NAME (eNOS uncoupling), WT mice; conditions: Ang II-infused WT mice
Description: as §4, §11

[21] = Ang II-infused hph-1 mice, FA 15 mg/kg per day

Compound: Nc1nc2ncc(CNc3ccc(C(=O)N[C@@H](CCC(=O)O)C(=O)O)cc3)nc2c(=O)[nH]1 [FA, folic acid]
- AAA formation ([1]; Ang II-infused hph-1 mice, 14 days, oral FA 15 mg/kg per day or DHFR vector tail vein transfection every other day): completely prevented and none
- AAA total morbidity / incidence rate ([1]; hph-1 mice): 0%
- AAA incidence ([2]; Ang II 1000 ng/kg/min for 4 weeks, FA 15 mg/kg/day in food where given): 16.7% and 17%
- number of mice with AAA [2]: 4
- number of mice with No AAA [2]: 20
- effect on Ang II-induced hypertension ([3]; Ang II-infused WT mice, FA 15 mg/kg per day): highly effective in attenuating
- effect on MBP decline [4, 21]: prevented the decline
- aortic H4B levels [5, 21]: even higher than baseline
- aortic levels of H4B [5]: 3.00 ± 0.64 pmol/mg
- aortic H4B levels [6]: even higher than baseline
- aortic H4B levels [7]: 6.60 ± 0.62 pmol/mg
- plasma H4B [8]: 5.80 ± 0.30 pmol/mg
- plasma levels of H4B [9]: 2.36 ± 0.25 pmol/mg
- abdominal aorta cross-sectional area at day 14 [10]: 0.52 mm^2
- endothelial DHFR expression [11]: restored
- medial degradation and adventitial inflammatory cell recruitment, H&E staining ([12]; Ang II-infused hph-1 mice): abrogated
- medial elastin flattening and rarefaction of elastin fibers, VVG staining ([12]; Ang II-infused hph-1 mice): attenuated
- infiltrating macrophages [12]: completely attenuated
- Ang II-induced MMP2 activation [13]: attenuated
- Ang II-induced MMP9 activation [14]: attenuated
- Ang II-induced MMP2 activation [15]: inhibited

Compound: angiotensin II (DRVYIHPF; Angiotensin-2; UniProt P11859 25-32, looked up) [Ang II, angiotensin II infused by osmotic pump to induce AAA and eNOS uncoupling in mice]
- AAA total morbidity / incidence rate ([1]; hph-1 mice): 79%
- no-AAA rate ([1]; hph-1 mice, Ang II 0.7 mg/kg per day, 14 days): 21%
- died or developed AAA [16]: none
- number of mice with AAA [2]: 24
- number of mice with No AAA [2]: 2
- mean blood pressure (MBP) ([3]; WT mice, day 6 of Ang II infusion (baseline 101±3)): 140±2 mm Hg
- mean blood pressure (MBP) ([4]; hph-1 mice, day 6 of Ang II infusion (baseline 112±3)): 140±2 mm Hg
- aortic levels of H4B [5]: 0.99 ± 0.11 pmol/mg
- aortic H4B levels [7]: 2.72 ± 0.26 pmol/mg
- plasma H4B [8]: 1.87 ± 0.11 pmol/mg
- plasma levels of H4B [9]: 0.92 ± 0.06 pmol/mg
- abdominal aorta cross-sectional area at day 14 [10]: 1.96 mm^2
- abdominal aorta cross-sectional area at day 14 [17]: 0.66 mm^2
- L-NAME sensitive superoxide production (eNOS uncoupling activity), fold ([18]; Ang II 4 weeks (baseline 1.17±0.06)): 2.22±0.2 fold
- L-NAME-sensitive superoxide production ([18]; Ang II 4 weeks, FA 15 mg/kg/day where given): markedly increased
- aortic superoxide production, fold increase ([18]; Ang II 4 weeks, n=6 each): 2.67±0.15 fold
- eNOS uncoupling / L-NAME-sensitive O2•− production [19]: further uncoupled; also recorded: progressive uncoupling
- eNOS uncoupling / L-NAME-sensitive O2•− production [20]: remained steady
- endothelial DHFR expression [11]: further reduced
- infiltrating macrophages [12]: dramatically upregulated
